# Results as given in patent US20200306295A1, “METHOD AND DEVICE FOR ANNIHILATION OF Staphylococcus aureus” (priority 2017, published 2020).
# System: 200 kinds of cytokines
# Test: Fold change of 200 cytokines in homogenized wound tissue
# Assay type: in vivo, Balb/c mice
# Description: To quantify the physiological condition of the wound tissues, we measured the concentrations of 200 kinds of cytokines (Table. 1) from the supernatant of homogenized tissue solution. Cytokines are small secreted proteins released by cells and have specific effect on the interactions and communications between cells (25).
# To initiate the formation of a skin wound, five groups (n=5) of eight-week old female Balb/c mice (obtained from Harlan Laboratories, Indianapolis, Ind., USA) were disinfected with ethanol (70%) and shaved on the middle of the back (approximately a one-inch by one-inch square region around the injection site) one day prior to infection as described from a reported procedure (3). To prepare the bacterial inoculum, an aliquot of overnight culture of MRSA USA300 was transferred to fresh Tryptic soy broth and shaken at 37° C. until an OD600 value of ˜1.0 was achieved. The cells were centrifuged, washed once with PBS, re-centrifuged, and then re-suspended in PBS. Mice subsequently received an intradermal injection (40 μL) containing 2.40×10^9 CFU/mL MRSA USA300.
# One group of mice was left untreated (negative control). Each group of mice receiving a particular treatment regimen was housed separately in a ventilated cage with appropriate bedding, food, and water. […] Mice were treated twice daily (once every 12 hours) for three days, before they were humanely euthanized via CO2 asphyxiation 12 hours after the last dose was administered. The region around the skin wound was lightly swabbed with ethanol (70%) and excised. The tissue was subsequently homogenized in PBS. The homogenized tissue was then serially diluted in PBS before plating onto mannitol salt agar plates. Plates were incubated for at least 19 hours at 37° C. before viable MRSA CFU/mL were counted for each group. Outlier was removed based upon the Dixon Q Test.
smiles,measurement,setting,value
CC(=O)O[C@H]1C[C@@]2(C)[C@@H](C[C@@H](O)[C@H]3[C@@]4(C)CC[C@@H](O)[C@@H](C)[C@@H]4CC[C@@]32C)/C1=C(\CCC=C(C)C)C(=O)O [fusidic acid],fold change of MBL-2 (mean),"cytokine MBL-2, group mean, wound tissue of MRSA-infected mice",0.0893
same,fold change of Meteorin (mean),"cytokine Meteorin, group mean, wound tissue of MRSA-infected mice",0.3361
same,fold change of NOV (mean),"cytokine NOV, group mean, wound tissue of MRSA-infected mice",−0.2053
same,fold change of Nope (mean),"cytokine Nope, group mean, wound tissue of MRSA-infected mice",0.0534
same,fold change of OX40 Ligand (mean),"cytokine OX40 Ligand, group mean, wound tissue of MRSA-infected mice",−0.1454
same,fold change of Osteoactivin (mean),"cytokine Osteoactivin, group mean, wound tissue of MRSA-infected mice",1.1132
same,fold change of P-Cadherin (mean),"cytokine P-Cadherin, group mean, wound tissue of MRSA-infected mice",0.5883
same,fold change of Periostin (mean),"cytokine Periostin, group mean, wound tissue of MRSA-infected mice",0.1651
same,fold change of PlGF-2 (mean),"cytokine PlGF-2, group mean, wound tissue of MRSA-infected mice",−0.0798
same,fold change of Progranulin (mean),"cytokine Progranulin, group mean, wound tissue of MRSA-infected mice",−0.4424
same,fold change of Prostasin (mean),"cytokine Prostasin, group mean, wound tissue of MRSA-infected mice",0.1030
same,fold change of Renin 1 (mean),"cytokine Renin 1, group mean, wound tissue of MRSA-infected mice",−0.4138
same,fold change of TIM-1 (mean),"cytokine TIM-1, group mean, wound tissue of MRSA-infected mice",−0.0806
same,fold change of Testican 3 (mean),"cytokine Testican 3, group mean, wound tissue of MRSA-infected mice",−0.4097
same,fold change of Tryptase ε (mean),"cytokine Tryptase ε, group mean, wound tissue of MRSA-infected mice",−0.0627
same,share of 200 cytokines with negative fold change vs untreated,fusidic acid alone,around 50%
same,fold change of 4-1BB,"mean, wound tissue",−0.0924
same,fold change of 6Ckine,"mean, wound tissue",0.0930
same,fold change of ACE,"mean, wound tissue",−0.3271
same,fold change of ADAMTS1,"mean, wound tissue",0.2350
same,fold change of ALK-1,"mean, wound tissue",−0.0491
same,fold change of ANG-3,"mean, wound tissue",0.0313
same,fold change of ANGPTL3,"mean, wound tissue",−0.2231
same,fold change of AR,"mean, wound tissue",0.6274
same,fold change of Activin A,"mean, wound tissue",0.2305
same,fold change of Adiponen,"mean, wound tissue",0.0147
same,fold change of Artemin,"mean, wound tissue",0.4218
same,fold change of Axl,"mean, wound tissue",0.0523
same,fold change of B7-1,"mean, wound tissue",−0.0561
same,fold change of BAFF R,"mean, wound tissue",0.0687
same,fold change of BLC,"mean, wound tissue",−0.3200
same,fold change of BTC,"mean, wound tissue",3.8576
same,fold change of C5a,"mean, wound tissue",0.1215
same,fold change of CCL6,"mean, wound tissue",−0.4027
same,fold change of CCL28,"mean, wound tissue",1.0791
same,fold change of CD6,"mean, wound tissue",0.3476
same,fold change of CD27,"mean, wound tissue",0.2818
same,fold change of CD27L,"mean, wound tissue",−0.0491
same,fold change of CD30,"mean, wound tissue",0.0137
same,fold change of CD30L,"mean, wound tissue",−0.0682
same,fold change of CD36,"mean, wound tissue",0.0674
same,fold change of CD40,"mean, wound tissue",0.3337
same,fold change of CD40L,"mean, wound tissue",0.0244
same,fold change of CD48,"mean, wound tissue",−0.0498
same,fold change of CRP,"mean, wound tissue",−0.0863
same,fold change of CT-1,"mean, wound tissue",−0.0581
same,fold change of CTLA4,"mean, wound tissue",0.2149
same,fold change of CXCL16,"mean, wound tissue",0.2447
same,fold change of Chemerin,"mean, wound tissue",0.1948
same,fold change of Chordin,"mean, wound tissue",−0.0599
same,fold change of Clusterin,"mean, wound tissue",0.2455
same,fold change of Cystatin C,"mean, wound tissue",−0.0271
same,fold change of DLL4,"mean, wound tissue",−0.0252
same,fold change of Decorin,"mean, wound tissue",−0.0222
same,fold change of Dkk-1,"mean, wound tissue",0.1157
same,fold change of Dtk,"mean, wound tissue",0.1217
same,fold change of E-Cadherin,"mean, wound tissue",0.1848
same,fold change of E-selectin,"mean, wound tissue",−0.2004
same,fold change of EDAR,"mean, wound tissue",−0.4592
same,fold change of EGF,"mean, wound tissue",0.0517
same,fold change of Endocan,"mean, wound tissue",0.0559
same,fold change of Endoglin,"mean, wound tissue",0.4267
same,fold change of Eotaxin,"mean, wound tissue",0.8019
same,fold change of Eotaxin-2,"mean, wound tissue",0.0292
same,fold change of Epigen,"mean, wound tissue",−0.0490
same,fold change of Epiregulin,"mean, wound tissue",−0.2220
same,fold change of Fas,"mean, wound tissue",0.0163
same,fold change of Fas L,"mean, wound tissue",−0.4112
same,fold change of Fcg RIIB,"mean, wound tissue",0.0602
same,fold change of Fetuin A,"mean, wound tissue",−0.6614
same,fold change of Flt-3L,"mean, wound tissue",0.1619
same,fold change of Fractalkine,"mean, wound tissue",−0.2364
same,fold change of G-CSF,"mean, wound tissue",0.1394
same,fold change of GITR,"mean, wound tissue",0.3966
same,fold change of GITR L,"mean, wound tissue",0.2327
same,fold change of GM-CSF,"mean, wound tissue",−0.1708
same,fold change of Galectin-1,"mean, wound tissue",0.0284
same,fold change of Galectin-3,"mean, wound tissue",0.0624
same,fold change of Galectin-7,"mean, wound tissue",0.7990
same,fold change of Gas 1,"mean, wound tissue",0.0715
same,fold change of Gas 6,"mean, wound tissue",−0.0661
same,fold change of Granzyme B,"mean, wound tissue",0.5603
same,fold change of Gremlin,"mean, wound tissue",4.9707
same,fold change of H60,"mean, wound tissue",0.2171
same,fold change of HAI-1,"mean, wound tissue",0.2271
same,fold change of HGF,"mean, wound tissue",0.2701
same,fold change of HGF R,"mean, wound tissue",0.0292
same,fold change of I-TAC,"mean, wound tissue",0.3744
same,fold change of ICAM-1,"mean, wound tissue",1.5512
same,fold change of IFNg,"mean, wound tissue",−0.0599
same,fold change of IFNg R1,"mean, wound tissue",0.0709
same,fold change of IGF-1,"mean, wound tissue",−0.4445
same,fold change of IGFBP-2,"mean, wound tissue",−0.0879
same,fold change of IGFBP-3,"mean, wound tissue",−0.2120
same,fold change of IGFBP-5,"mean, wound tissue",−0.0782
same,fold change of IGFBP-6,"mean, wound tissue",−0.2897
same,fold change of IL-1 R4,"mean, wound tissue",−0.0208
same,fold change of IL-1a,"mean, wound tissue",−0.0503
same,fold change of IL-1b,"mean, wound tissue",−0.2158
same,fold change of IL-1ra,"mean, wound tissue",0.3851
same,fold change of IL-2,"mean, wound tissue",0.0606
same,fold change of IL-2 Ra,"mean, wound tissue",0.1879
same,fold change of IL-3,"mean, wound tissue",−0.1398
same,fold change of IL-3 Rb,"mean, wound tissue",0.0789
same,fold change of IL-4,"mean, wound tissue",−0.0096
same,fold change of IL-5,"mean, wound tissue",−0.0953
same,fold change of IL-6,"mean, wound tissue",0.2682
same,fold change of IL-7,"mean, wound tissue",0.1116
same,fold change of IL-7 Ra,"mean, wound tissue",−0.7276
same,fold change of IL-9,"mean, wound tissue",0.1408
same,fold change of IL-10,"mean, wound tissue",−0.0351
same,fold change of IL-12p40,"mean, wound tissue",0.0324
same,fold change of IL-12p70,"mean, wound tissue",0.0029
same,fold change of IL-13,"mean, wound tissue",−0.5654
same,fold change of IL-15,"mean, wound tissue",−0.0506
same,fold change of IL-17,"mean, wound tissue",0.2684
same,fold change of IL-17B,"mean, wound tissue",−0.0513
same,fold change of IL-17B R,"mean, wound tissue",0.4884
same,fold change of IL-17E,"mean, wound tissue",−0.1800
same,fold change of IL-17F,"mean, wound tissue",0.2592
same,fold change of IL-20,"mean, wound tissue",0.0953
same,fold change of IL-21,"mean, wound tissue",−0.4052
same,fold change of IL-22,"mean, wound tissue",−0.0487
same,fold change of IL-23,"mean, wound tissue",0.2627
same,fold change of IL-28,"mean, wound tissue",−0.1588
same,fold change of IL-33,"mean, wound tissue",0.3416
same,fold change of JAM-A,"mean, wound tissue",0.3062
same,fold change of KC,"mean, wound tissue",0.0909
same,fold change of Kremen-1,"mean, wound tissue",0.2672
same,fold change of L-Selectin,"mean, wound tissue",−0.3559
same,fold change of LIX,"mean, wound tissue",−0.0313
same,fold change of LOX-1,"mean, wound tissue",0.0568
same,fold change of Leptin,"mean, wound tissue",−0.1199
same,fold change of Leptin R,"mean, wound tissue",0.1134
same,fold change of Limitin,"mean, wound tissue",−0.1844
same,fold change of Lipocalin-2,"mean, wound tissue",−0.0695
same,fold change of Lungkine,"mean, wound tissue",−0.0819
same,fold change of Lymphotactin,"mean, wound tissue",0.0908
same,fold change of MCP-1,"mean, wound tissue",0.0071
same,fold change of MCP-5,"mean, wound tissue",−0.0915
same,fold change of MCSF,"mean, wound tissue",−0.5503
same,fold change of MDC,"mean, wound tissue",−0.0764
same,fold change of MFG-E8,"mean, wound tissue",0.4647
same,fold change of MIG,"mean, wound tissue",0.5378
same,fold change of MIP-1a,"mean, wound tissue",−0.3165
same,fold change of MIP-1b,"mean, wound tissue",−0.5769
same,fold change of MIP-1g,"mean, wound tissue",0.0304
same,fold change of MIP-2,"mean, wound tissue",−0.0070
same,fold change of MIP-3a,"mean, wound tissue",0.3460
same,fold change of MIP-3b,"mean, wound tissue",0.0690
same,fold change of MMP-2,"mean, wound tissue",0.1026
same,fold change of MMP-3,"mean, wound tissue",−0.1230
same,fold change of MMP-10,"mean, wound tissue",0.3470
same,fold change of MadCAM-1,"mean, wound tissue",−0.0787
same,fold change of Marapsin,"mean, wound tissue",−0.1703
same,fold change of Neprilysin,"mean, wound tissue",0.5936
same,fold change of OPG,"mean, wound tissue",0.9914
same,fold change of OPN,"mean, wound tissue",0.8216
same,fold change of P-selectin,"mean, wound tissue",−0.2374
same,fold change of PDGF-AA,"mean, wound tissue",0.4578
same,fold change of PF4,"mean, wound tissue",−0.6256
same,fold change of Pentraxin 3,"mean, wound tissue",−0.6735
same,fold change of Persephin,"mean, wound tissue",0.5348
same,fold change of Pro-MMP-9,"mean, wound tissue",0.0197
same,fold change of Prolactin,"mean, wound tissue",0.4580
same,fold change of RAGE,"mean, wound tissue",0.1727
same,fold change of RANTES,"mean, wound tissue",−0.2545
same,fold change of Resistin,"mean, wound tissue",0.2752
same,fold change of SCF,"mean, wound tissue",0.1498
same,fold change of SDF-1a,"mean, wound tissue",0.1707
same,fold change of SLAM,"mean, wound tissue",0.1871
same,fold change of Shh-N,"mean, wound tissue",−0.0849
same,fold change of TACI,"mean, wound tissue",0.4640
same,fold change of TARC,"mean, wound tissue",0.3205
same,fold change of TCA-3,"mean, wound tissue",−0.1264
same,fold change of TCK-1,"mean, wound tissue",−0.0185
same,fold change of TECK,"mean, wound tissue",0.4529
same,fold change of TGFb1,"mean, wound tissue",0.0743
same,fold change of TNF RI,"mean, wound tissue",−0.1306
same,fold change of TNF RII,"mean, wound tissue",−0.2811
same,fold change of TNFα,"mean, wound tissue",−0.4306
same,fold change of TPO,"mean, wound tissue",0.2663
same,fold change of TRANCE,"mean, wound tissue",0.0310
same,fold change of TREM-1,"mean, wound tissue",0.0981
same,fold change of TROY,"mean, wound tissue",0.0517
same,fold change of TSLP,"mean, wound tissue",−0.0086
same,fold change of TWEAK,"mean, wound tissue",−0.0621
same,fold change of TWEAK R,"mean, wound tissue",−0.2341
same,fold change of TremL1,"mean, wound tissue",−0.0440
same,fold change of VCAM-1,"mean, wound tissue",−0.0283
same,fold change of VEGF,"mean, wound tissue",0.0403
same,fold change of VEGF R1,"mean, wound tissue",0.1580
same,fold change of VEGF R3,"mean, wound tissue",0.1061
same,fold change of VEGF-B,"mean, wound tissue",0.0230
same,fold change of VEGF-D,"mean, wound tissue",0.0367
same,fold change of bFGF,"mean, wound tissue",−0.4981
same,fold change of gp130,"mean, wound tissue",0.5867
same,fold change of sFRP-3,"mean, wound tissue",0.0607
